Reference: paper PMC10828444, “Selective inhibition of overactive warmth-sensitive Ca^2+-permeable TRPV3 channels by antispasmodic agent flopropione for alleviation of skin inflammation” (The Journal of Biological Chemistry, 2023)
Substitutions are numbered along the chain they refer to.

Tests used:
Assay type in all cases: cell-based
[1] = molecular target: T1, hTRPV1 (Homo sapiens, UniProt Q8NER1); assay: Whole-cell patch-clamp of TRPV1 currents evoked by capsaicin in HEK293 cells; details: flopropione 100 μM, 1 μM capsaicin
T1 construct: expressed in transfected cells; host or cells: HEK293
T1 sequence (Q8NER1 whole entry): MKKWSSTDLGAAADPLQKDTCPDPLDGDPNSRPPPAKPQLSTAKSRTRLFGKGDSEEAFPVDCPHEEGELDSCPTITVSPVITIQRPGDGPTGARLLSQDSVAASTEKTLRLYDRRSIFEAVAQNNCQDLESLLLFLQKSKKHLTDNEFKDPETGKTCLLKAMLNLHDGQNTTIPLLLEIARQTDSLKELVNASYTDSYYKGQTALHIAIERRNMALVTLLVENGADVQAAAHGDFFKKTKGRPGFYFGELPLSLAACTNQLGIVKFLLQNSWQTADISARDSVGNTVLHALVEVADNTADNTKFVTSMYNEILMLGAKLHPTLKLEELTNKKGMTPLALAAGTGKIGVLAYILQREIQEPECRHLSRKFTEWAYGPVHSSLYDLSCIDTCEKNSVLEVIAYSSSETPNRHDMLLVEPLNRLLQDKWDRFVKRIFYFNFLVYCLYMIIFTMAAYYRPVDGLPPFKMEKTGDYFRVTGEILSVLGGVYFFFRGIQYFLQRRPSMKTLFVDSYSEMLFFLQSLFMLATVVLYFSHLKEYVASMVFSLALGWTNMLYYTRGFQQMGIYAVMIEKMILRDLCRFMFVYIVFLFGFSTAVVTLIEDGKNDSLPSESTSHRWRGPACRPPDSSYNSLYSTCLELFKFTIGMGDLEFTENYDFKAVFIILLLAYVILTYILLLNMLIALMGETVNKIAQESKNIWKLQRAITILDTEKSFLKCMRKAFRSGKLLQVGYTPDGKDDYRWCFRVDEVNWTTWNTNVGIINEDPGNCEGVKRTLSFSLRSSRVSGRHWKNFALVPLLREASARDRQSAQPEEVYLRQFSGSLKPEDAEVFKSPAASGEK
Procedure: (§1) HEK293 cells were cultured in Dulbecco’s modified Eagle’s medium (DMEM, Gibco) containing 4.5 g/L D-glucose supplemented with 10% fetal bovine serum based at 37 °C with 5% CO2. For whole-cell patch-clamp recordings, cells were grown in glass coverslips for 24 h before transient transfections with 3000 ng cDNAs of hTRPV3 (gene accession number BC104866.1), hTRPV1 (accession number NM_080704.3), mTRPV2 (accession number NM_011706.2), hTRPV4 (accession number NM_021625.5), hTRPA1 (accession number NM_007332.3) and hTRPM8 (accession number NM_024080.5) into HEK293 cells grown in a 35-mm cell culture dish using Lipofectamine 2000 (Invitrogen). Cells were used 18 ∼ 24 h after transfection. All WT or mutant hTRPV3 plasmids were validated by DNA sequencing.
(§2) Whole-cell patch clamp recordings of wild-type and mutants were carried out at room temperature using the HEKA EPC10 amplifier powered by PatchMaster software (HEKA) or MultiClamp 700B amplifier driven by Clampex 11.0.3 software. The borosilicate glass pipettes were pulled and fire-polished to 3∼6 MΩ using a DMZ universal electrode puller (Zeitz-Instruments, GmbH). Pipette solution and bath solution both contained (in mM): 130 NaCl, three HEPES, and 0.2 EDTA (pH = 7.4). Cell membrane potential was held at 0 mV, currents were recorded at a voltage ramp from −100 to +100 mV for 500-ms and analyzed at ±80 mV.

[2] = molecular target: T2, hTRPV4 (Homo sapiens, UniProt Q9HBA0); assay: Whole-cell patch-clamp of TRPV4 currents activated by GSK1016790A in HEK293 cells; details: flopropione 100 μM, GSK1016790A 0.1 μM
T2 construct: expressed in transfected cells; host or cells: HEK293
T2 sequence (Q9HBA0 whole entry): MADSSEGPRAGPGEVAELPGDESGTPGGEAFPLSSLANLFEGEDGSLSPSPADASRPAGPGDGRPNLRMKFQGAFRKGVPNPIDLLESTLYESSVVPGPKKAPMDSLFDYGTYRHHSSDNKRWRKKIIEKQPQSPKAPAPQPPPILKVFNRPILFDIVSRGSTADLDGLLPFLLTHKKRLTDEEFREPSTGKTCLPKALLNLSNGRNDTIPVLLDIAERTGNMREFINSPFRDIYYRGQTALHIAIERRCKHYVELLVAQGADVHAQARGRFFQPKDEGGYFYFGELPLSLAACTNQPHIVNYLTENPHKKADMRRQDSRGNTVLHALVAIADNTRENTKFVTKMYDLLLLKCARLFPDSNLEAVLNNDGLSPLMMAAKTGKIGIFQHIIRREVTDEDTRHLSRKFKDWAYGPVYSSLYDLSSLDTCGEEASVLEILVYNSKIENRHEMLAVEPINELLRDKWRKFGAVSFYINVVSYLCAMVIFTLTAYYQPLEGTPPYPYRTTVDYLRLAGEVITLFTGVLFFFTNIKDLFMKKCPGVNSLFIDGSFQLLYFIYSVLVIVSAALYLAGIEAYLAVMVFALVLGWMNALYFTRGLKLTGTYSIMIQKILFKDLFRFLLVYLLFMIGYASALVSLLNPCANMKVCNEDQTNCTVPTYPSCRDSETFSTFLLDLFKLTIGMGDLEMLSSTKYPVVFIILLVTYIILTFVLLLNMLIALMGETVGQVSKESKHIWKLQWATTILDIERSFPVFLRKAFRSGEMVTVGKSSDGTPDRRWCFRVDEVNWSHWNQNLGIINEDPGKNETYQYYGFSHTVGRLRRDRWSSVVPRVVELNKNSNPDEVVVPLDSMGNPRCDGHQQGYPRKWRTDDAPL
Procedure: as §1, §2

[3] = molecular target: T3, hTRPV3 I505A mutant (Homo sapiens, UniProt Q8NET8, I505A); assay: Whole-cell recordings of TRPV3 I505A mutant; details: 100 μM flopropione, 2-APB
T3 construct: expressed in transfected cells; host or cells: HEK293
T3 sequence (Q8NET8 1-790 I505A): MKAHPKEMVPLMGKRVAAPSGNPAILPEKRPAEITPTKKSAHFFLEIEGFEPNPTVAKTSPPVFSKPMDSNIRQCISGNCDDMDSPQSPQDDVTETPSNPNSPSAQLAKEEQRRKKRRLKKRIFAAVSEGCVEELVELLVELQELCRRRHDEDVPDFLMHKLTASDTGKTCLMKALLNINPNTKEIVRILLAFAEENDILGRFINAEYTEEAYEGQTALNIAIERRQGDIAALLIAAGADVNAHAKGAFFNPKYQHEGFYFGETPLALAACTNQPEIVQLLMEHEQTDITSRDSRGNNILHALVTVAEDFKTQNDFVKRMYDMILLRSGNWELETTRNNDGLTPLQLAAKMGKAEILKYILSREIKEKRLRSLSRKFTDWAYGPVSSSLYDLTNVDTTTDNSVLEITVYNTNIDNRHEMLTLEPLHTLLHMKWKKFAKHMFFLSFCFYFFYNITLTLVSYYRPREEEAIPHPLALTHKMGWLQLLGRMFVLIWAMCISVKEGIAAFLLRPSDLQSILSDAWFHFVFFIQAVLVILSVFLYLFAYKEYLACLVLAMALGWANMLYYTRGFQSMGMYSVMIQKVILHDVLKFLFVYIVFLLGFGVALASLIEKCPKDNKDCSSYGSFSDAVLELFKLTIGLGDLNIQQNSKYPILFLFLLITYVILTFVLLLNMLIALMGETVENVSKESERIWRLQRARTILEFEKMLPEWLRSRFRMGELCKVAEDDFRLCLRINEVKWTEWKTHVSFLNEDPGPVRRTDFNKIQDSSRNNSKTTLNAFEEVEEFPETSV
Procedure: as §1, §2

[4] = molecular target: T4, hTRPV3 R509A mutant (Homo sapiens, UniProt Q8NET8, R509A); assay: Whole-cell recordings of TRPV3 R509A mutant; details: 100 μM flopropione, 2-APB
T4 construct: expressed in transfected cells; host or cells: HEK293
T4 sequence (Q8NET8 1-790 R509A): T3 sequence (Q8NET8 1-790 I505A) with A505I, R509A
Procedure: as §1, §2

## CCC(=O)c1c(O)cc(O)cc1O [flopropione]
[1]
  effect on TRPV1 currents: no effect
[2]
  effect on TRPV4 currents: no effect
[3]
  effect of I505 mutation on inhibition by flopropione: partially reduced TRPV3 inhibition
[4]
  sensitivity of R509A mutant to flopropione inhibition: maintained the sensitivity to flopropione inhibition
